Laboratory results taken from ChEMBL document CHEMBL1201862, “PubChem BioAssay data set” (2004).
Activity calls are given as the source filed them.

Assays:
[1] = molecular target: Cytochrome P450 2D6 (Homo sapiens, UniProt P10635); experiment: qHTS Assay for Inhibitors and Substrates of Cytochrome P450 2D6. [Related pubchem assays: 410 ]; type: ADME; settings: read-out: Potency
[2] = system: Vero; experiment: host cell cytotoxicity of antiviral hits, dose response, cytotoxicity control for West Nile virus antiviral project, secondary assay (AID 1650); type: functional; settings: Chlorocebus sabaeus
[3] = system: INS1; experiment: beta cell apoptosis inhibitors, cytokine rescue, dose response, luminescence, retest (AID 449756); type: functional, cell-based; settings: Rattus norvegicus;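 also: cell death triggered by IL-1 beta plus TNF-alpha plus IFN-gamma mixture; protective hits raise ATP signal compared with cytokine alone wells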
[4] = molecular target: Beta-galactosidase (Escherichia coli, UniProt Q8VNN2); experiment: PubChem AID 485352; type: functional
Chain of Beta-galactosidase (Q8VNN2 whole entry): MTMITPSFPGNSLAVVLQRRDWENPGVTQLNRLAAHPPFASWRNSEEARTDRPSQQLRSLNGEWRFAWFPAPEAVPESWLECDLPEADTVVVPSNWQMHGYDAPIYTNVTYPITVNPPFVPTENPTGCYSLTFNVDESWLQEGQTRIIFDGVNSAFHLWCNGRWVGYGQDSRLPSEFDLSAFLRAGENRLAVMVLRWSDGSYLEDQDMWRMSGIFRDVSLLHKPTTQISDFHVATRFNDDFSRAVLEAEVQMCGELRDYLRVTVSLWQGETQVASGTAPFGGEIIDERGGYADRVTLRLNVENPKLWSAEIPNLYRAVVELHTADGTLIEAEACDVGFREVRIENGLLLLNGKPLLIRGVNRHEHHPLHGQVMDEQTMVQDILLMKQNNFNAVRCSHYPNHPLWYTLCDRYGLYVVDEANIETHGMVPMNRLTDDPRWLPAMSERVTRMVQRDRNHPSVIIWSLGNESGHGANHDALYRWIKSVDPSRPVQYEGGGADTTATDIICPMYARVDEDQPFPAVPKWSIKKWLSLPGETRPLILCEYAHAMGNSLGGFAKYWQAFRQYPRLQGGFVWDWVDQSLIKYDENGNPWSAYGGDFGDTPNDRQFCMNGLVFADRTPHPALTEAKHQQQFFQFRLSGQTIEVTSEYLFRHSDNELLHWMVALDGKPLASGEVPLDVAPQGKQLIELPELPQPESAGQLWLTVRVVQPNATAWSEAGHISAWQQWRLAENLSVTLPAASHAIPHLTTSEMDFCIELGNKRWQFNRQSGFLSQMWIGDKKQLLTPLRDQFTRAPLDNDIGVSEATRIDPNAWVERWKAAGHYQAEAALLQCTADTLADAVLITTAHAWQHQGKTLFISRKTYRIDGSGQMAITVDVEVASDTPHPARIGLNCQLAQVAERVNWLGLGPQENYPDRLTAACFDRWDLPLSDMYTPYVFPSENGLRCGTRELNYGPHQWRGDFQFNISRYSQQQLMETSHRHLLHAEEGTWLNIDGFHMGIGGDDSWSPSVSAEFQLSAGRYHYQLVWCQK

[5] = molecular target: T1, Short transient receptor potential channel 4 (Mus musculus, UniProt Q9QUQ5); experiment: mouse TRPC4 channel activators, dose response, cell-based, HEK293 TRPC4/mu-opioid, Fluo-4 calcium (AID 434937); type: functional
T1 sequence (Q9QUQ5 whole entry): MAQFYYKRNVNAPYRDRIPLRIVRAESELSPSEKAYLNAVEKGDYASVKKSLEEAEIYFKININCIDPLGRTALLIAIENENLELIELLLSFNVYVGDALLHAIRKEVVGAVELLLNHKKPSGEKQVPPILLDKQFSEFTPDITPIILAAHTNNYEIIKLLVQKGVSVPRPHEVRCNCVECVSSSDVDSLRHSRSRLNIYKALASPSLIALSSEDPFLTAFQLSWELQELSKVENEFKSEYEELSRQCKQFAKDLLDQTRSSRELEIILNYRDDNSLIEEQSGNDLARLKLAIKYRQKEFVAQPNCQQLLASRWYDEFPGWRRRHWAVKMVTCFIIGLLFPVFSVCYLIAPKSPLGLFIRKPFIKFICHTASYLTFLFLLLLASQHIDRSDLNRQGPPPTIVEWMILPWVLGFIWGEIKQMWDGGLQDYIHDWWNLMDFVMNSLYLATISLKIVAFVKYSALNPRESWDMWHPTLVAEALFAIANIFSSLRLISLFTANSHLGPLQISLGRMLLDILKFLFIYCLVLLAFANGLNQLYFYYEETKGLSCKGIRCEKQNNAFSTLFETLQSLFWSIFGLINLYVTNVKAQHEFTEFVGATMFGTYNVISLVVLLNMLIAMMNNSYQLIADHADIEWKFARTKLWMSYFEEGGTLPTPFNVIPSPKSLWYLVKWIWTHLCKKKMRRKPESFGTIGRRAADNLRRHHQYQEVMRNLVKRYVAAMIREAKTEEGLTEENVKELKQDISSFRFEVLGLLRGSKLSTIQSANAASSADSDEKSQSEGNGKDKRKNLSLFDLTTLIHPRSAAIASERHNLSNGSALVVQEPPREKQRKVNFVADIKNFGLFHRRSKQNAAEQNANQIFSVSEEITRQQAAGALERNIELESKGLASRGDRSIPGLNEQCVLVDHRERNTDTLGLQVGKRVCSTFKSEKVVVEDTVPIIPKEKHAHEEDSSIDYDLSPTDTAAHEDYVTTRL

[6] = C. albicans growth with fluconazole, confirmation, fluorescence, retest (AID 2467); type: functional, cell-based
[7] = NIH-3T3 fibroblast cytotoxicity, dose response, cytotoxicity control, cell-based, fluorescence, Alamar Blue, secondary assay (AID 2327); type: functional;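 also: NIH-3T3 mouse fibroblasts cultured with fluconazole at 8 µg/mL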
[8] = molecular target: T2, Type-1 angiotensin II receptor (Homo sapiens, UniProt P30556); experiment: AT1 receptor antagonists, dose response, selectivity assay for APJ receptor antagonist project, cell-based, uHTS hits (AID 463214); type: functional;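 also: antagonist potency against angiotensin II stimulated AT1 response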
T2 sequence (P30556 whole entry): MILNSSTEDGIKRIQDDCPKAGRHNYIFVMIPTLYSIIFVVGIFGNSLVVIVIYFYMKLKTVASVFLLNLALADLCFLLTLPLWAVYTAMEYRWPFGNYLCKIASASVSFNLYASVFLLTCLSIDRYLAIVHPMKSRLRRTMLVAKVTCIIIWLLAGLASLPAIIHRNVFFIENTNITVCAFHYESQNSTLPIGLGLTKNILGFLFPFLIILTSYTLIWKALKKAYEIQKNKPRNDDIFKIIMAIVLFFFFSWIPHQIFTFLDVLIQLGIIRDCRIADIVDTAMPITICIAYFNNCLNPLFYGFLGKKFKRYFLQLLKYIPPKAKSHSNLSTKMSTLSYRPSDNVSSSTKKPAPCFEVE

[9] = molecular target: Heat shock protein HSP 90-alpha (Homo sapiens, UniProt P07900); type: functional, organism-based
[10] = Artemis endonuclease inhibitor potency, dose response, biochemical, fluorescence intensity (AID 720701); type: functional;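 also: Artemis endonuclease enzyme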
[11] = molecular target: G-protein coupled receptor 55 (Homo sapiens, UniProt Q9Y2T6); experiment: GPR55 antagonists blocking LPI-driven arrestin recruitment, primary screen, imaging, U2OS, beta-arrestin-GFP, LPI agonist (AID 2013); type: functional;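 also: antagonist potency measured as reduced agonist-driven arrestin aggregation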
Chain of G-protein coupled receptor 55 (Q9Y2T6 whole entry): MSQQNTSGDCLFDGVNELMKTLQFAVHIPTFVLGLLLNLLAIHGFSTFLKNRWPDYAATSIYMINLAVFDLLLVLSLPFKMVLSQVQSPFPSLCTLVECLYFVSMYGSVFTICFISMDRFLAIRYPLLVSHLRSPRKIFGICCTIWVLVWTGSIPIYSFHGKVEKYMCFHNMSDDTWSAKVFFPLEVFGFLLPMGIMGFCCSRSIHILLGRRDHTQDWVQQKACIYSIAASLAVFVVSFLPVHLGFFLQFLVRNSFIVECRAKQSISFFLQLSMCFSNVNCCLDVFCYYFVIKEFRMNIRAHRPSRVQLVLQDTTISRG

[12] = Luminescence Cell-Based Dose Retest to Confirm Inhibitors of Cancer Stem Cells. [Related pubchem assays (depositor defined):AID2717, AID2721]; type: functional; settings: Homo sapiens
[13] = molecular target: T3, Alkaline phosphatase, tissue-nonspecific isozyme (Homo sapiens, UniProt P05186)
T3 sequence (P05186 whole entry): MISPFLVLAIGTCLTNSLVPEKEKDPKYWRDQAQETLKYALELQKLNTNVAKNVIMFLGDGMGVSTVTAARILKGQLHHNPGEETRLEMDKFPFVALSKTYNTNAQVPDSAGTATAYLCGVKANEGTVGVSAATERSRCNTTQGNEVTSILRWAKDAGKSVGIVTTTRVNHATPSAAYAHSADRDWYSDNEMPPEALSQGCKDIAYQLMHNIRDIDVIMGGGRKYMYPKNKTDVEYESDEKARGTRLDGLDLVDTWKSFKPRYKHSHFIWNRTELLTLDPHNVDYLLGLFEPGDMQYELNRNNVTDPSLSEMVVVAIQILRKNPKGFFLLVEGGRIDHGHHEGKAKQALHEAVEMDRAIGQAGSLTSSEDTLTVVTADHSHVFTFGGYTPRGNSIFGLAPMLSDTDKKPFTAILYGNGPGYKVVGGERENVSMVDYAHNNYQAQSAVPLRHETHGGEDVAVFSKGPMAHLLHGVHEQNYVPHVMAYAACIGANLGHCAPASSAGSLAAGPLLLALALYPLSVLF

[14] = molecular target: Procathepsin L (Homo sapiens, UniProt P07711); experiment: cathepsin L inhibitors, dose response, counter-screen for M1/M17 aminopeptidase inhibitor project, biochemical, QFRET, 1536-well (AID 2214)
Chain of Procathepsin L (P07711 whole entry): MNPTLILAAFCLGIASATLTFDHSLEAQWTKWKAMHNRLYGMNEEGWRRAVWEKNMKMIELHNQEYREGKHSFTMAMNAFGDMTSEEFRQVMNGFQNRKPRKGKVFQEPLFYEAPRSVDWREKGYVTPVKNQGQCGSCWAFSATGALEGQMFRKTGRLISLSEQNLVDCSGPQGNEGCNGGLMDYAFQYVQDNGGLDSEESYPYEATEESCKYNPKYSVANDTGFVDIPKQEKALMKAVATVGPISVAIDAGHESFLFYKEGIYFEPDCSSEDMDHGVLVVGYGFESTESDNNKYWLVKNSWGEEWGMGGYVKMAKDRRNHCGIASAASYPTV

[15] = molecular target: T4, Leucine aminopeptidase (Plasmodium falciparum 3D7, UniProt Q8IL11); experiment: P. falciparum M17LAP inhibitors, primary screen, biochemical, fluorogenic H-Leu-NHMec substrate, 1536-well (AID 1619); type: functional
T4 sequence (Q8IL11 whole entry): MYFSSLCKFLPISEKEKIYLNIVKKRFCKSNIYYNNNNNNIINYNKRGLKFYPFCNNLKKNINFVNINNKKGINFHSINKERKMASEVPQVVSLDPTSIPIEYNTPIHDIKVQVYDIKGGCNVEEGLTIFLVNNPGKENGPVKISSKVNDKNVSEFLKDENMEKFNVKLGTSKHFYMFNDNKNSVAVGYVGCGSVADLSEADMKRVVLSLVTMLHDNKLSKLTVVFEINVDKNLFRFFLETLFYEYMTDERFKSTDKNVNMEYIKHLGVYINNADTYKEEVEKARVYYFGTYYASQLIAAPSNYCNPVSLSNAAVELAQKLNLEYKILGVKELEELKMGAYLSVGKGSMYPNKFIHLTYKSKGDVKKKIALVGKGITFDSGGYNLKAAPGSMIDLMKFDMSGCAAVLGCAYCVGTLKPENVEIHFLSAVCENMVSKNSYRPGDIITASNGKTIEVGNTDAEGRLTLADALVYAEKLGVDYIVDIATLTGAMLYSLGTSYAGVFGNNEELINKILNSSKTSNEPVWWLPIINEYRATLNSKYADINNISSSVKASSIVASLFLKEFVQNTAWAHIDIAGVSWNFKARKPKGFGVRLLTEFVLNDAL

[16] = molecular target: T5, Aspartyl aminopeptidase (Plasmodium falciparum 3D7, UniProt Q8I2J3); experiment: Counterscreen for inhibitors of M1 and M17 aminopeptidases: QFRET-based biochemical high throughput dose response assay for inhibitors of the Plasmodium falciparum M18 Aspartyl Aminopeptidase (PFM18AAP). [Related PubChem assays: 1619 (Screening assay (M17LAP inhibitors).), 1445 (Screening assay (M1AAP inhibitors).)]
T5 sequence (Q8I2J3 whole entry): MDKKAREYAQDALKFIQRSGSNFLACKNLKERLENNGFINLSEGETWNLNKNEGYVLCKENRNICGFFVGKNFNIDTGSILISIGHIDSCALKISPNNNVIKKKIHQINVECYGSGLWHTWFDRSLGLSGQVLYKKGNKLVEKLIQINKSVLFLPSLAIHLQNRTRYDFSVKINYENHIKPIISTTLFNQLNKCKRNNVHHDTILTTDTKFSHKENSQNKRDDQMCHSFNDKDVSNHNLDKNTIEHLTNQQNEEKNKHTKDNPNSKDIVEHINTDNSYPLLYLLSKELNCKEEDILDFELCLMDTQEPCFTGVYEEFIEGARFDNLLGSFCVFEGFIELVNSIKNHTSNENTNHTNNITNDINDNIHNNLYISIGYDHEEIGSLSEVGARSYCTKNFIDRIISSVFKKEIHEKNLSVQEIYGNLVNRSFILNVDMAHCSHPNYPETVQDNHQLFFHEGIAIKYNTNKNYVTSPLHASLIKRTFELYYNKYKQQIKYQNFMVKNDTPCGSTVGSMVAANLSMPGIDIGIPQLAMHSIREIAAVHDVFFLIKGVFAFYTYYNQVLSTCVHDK

[17] = molecular target: Mothers against decapentaplegic homolog 3 (Homo sapiens, UniProt P84022); experiment: Smad3 binding inhibitors, lysate ELISA, dose response, cell lysate, secondary confirmation, chemiluminescent ELISA, HEK293 lysate (AID 1058); type: functional
Chain of Mothers against decapentaplegic homolog 3 (P84022 whole entry): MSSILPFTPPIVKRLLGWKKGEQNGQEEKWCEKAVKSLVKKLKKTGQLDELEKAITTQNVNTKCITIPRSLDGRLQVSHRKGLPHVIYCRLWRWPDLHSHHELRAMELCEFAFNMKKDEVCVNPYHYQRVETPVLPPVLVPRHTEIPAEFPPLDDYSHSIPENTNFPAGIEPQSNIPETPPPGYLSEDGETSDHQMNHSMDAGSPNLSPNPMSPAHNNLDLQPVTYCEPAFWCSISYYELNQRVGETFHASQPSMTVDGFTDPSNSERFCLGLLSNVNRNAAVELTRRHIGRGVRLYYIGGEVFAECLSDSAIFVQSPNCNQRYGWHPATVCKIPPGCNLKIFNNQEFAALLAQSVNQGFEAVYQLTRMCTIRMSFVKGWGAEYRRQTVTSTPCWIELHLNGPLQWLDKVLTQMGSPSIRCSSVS

[18] = molecular target: Paired box protein Pax-8 (Homo sapiens, UniProt Q06710); experiment: inhibitors of PAX8-driven TPO luciferase reporter, dose response, RMG-I cells, cherry-pick (AID 687027); type: functional, cell-based;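 also: luciferase reporter driven by Pax8 target thyroperoxidase promoter measured by SteadyGlo luminescence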
Chain of Paired box protein Pax-8 (Q06710 whole entry): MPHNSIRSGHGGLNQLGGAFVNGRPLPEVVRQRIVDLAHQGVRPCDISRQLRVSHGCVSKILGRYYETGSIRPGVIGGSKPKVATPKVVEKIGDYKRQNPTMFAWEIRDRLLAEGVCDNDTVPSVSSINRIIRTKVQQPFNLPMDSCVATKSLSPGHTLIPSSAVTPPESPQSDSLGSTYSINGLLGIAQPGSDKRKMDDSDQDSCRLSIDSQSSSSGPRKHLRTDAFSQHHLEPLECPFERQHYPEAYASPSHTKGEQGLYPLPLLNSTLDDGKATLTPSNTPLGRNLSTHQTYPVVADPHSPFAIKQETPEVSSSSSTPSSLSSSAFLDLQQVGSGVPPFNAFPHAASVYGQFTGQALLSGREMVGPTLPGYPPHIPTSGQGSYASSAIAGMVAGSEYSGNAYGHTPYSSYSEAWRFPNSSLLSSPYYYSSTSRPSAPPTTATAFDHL

[19] = A Cell Based Secondary Assay To Explore Cytotoxicity of Compounds that Sensitize Mycobacterium Tuberculosis to Beta-Lactam Antibiotics.; type: functional
[20] = molecular target: T6, Microphthalmia-associated transcription factor (Homo sapiens, UniProt O75030); experiment: TRPM1 promoter luciferase signal decrease, dose response, MITF inhibitor project, cell-based, SK-MEL-5, cherry-picked, set 3 (AID 493073); type: functional
T6 sequence (O75030 whole entry): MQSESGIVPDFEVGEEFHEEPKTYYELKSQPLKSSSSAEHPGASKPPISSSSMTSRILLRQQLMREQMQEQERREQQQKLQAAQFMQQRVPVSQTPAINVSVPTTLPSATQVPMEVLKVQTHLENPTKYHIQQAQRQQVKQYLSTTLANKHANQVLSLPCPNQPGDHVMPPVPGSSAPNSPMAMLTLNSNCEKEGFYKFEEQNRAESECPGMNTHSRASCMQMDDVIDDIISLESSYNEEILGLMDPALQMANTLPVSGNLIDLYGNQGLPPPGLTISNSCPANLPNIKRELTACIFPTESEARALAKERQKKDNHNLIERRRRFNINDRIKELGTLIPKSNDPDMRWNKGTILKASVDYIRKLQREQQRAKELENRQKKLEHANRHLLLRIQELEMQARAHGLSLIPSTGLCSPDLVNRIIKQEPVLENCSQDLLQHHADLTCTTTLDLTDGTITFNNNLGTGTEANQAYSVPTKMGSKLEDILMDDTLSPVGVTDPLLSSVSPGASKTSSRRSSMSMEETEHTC

Chain of Cytochrome P450 2D6 (P10635 whole entry): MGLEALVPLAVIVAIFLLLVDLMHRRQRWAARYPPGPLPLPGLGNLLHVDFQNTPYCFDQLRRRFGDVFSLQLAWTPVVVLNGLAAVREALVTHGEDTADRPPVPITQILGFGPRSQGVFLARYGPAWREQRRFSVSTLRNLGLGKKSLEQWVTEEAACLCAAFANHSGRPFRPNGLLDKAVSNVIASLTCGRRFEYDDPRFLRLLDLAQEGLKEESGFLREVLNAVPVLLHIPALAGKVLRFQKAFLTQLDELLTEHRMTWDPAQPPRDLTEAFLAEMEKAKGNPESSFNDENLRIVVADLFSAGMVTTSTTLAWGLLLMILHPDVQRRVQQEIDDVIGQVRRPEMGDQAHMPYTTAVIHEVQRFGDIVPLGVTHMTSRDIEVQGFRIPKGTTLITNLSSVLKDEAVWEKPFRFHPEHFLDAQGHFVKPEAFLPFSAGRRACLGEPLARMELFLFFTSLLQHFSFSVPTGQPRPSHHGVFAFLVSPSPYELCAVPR

COc1cc2c(cc1O)CCN[C@H]2C
AC50 [1]: 20 µM (inconclusive)

CC(C)(C)C(=O)NC(=S)NNC(=O)c1ccc(-c2ccccc2)cc1
CC50 [2]: 4.57 µM (active) | AC50 [3]: 2.14 µM (active) | EC50 [4]: > 40 µM (inactive) | EC50 [5]: 1.5 µM (active) | EC50 [6]: 0.694 µM (active) | EC50 [7]: 3.25 µM (active) | IC50 [8]: 10.8 µM (active)

COc1ccc(OC2C=CC(c3ccccc3)OC2CO)cc1 (stereo unspecified)
AC50 [1]: 6.31 µM (inconclusive)

c1ccc(-c2c(-c3ccccc3)n(Cc3ccco3)c3ncnc(NCCCn4ccnc4)c23)cc1
AC50 [9]: 2.53 µM (active) | IC50 [10]: 17.8 µM (active) | IC50 [11]: 2.09 µM (active) | AC50 [12]: 5.23 µM (active) | EC50 [13]: 63 µM (not active)

CCCCc1ccc(NC(=S)NCCc2ccc(S(N)(=O)=O)cc2)cc1
EC50 [13]: > 100 µM (not active)

COC(=O)c1c(-c2cc(C)ccc2C)csc1NC(=O)C1CC=CCC1C(=O)O (stereo unspecified)
IC50 [14]: > 59.6 µM (not active) | IC50 [15]: < 1 µM (active) | IC50 [16]: > 73.5 µM (not active)

COc1ccc(C(c2cc3c(cc2O)OCO3)N2CCOCC2)c(OC)c1 (stereo unspecified)
IC50 [17]: > 40 µM (not active)

Cc1sc(NC(=O)C2CC(Cl)=CCC2C(=O)O)c(C#N)c1C (stereo unspecified)
IC50 [14]: > 59.6 µM (not active) | IC50 [15]: 1.73 µM (active) | IC50 [16]: > 73.5 µM (not active)

C=C1C(=O)O[C@@H]2[C@H]1[C@@H](OC(=O)/C(C)=C/C)C/C(C)=C\C(=O)/C=C(\C)[C@@H]2O
AC50 [18]: 4.03 µM (active) | CC50 [19]: 4.26 µM (active) | AC50 [20]: 7.07 µM (active)

O=C1C=CC(=C(c2ccc(O)c(O)c2)c2ccccc2S(=O)(=O)O)C=C1O [PYROCATECHOL VIOLET]
IC50 [17]: 3.28 µM (not active)
